# Assay results: patent EP0340171A2, “Cyclodextrin complexes of 5-aminohexahydropyrimidine compounds” (WARNER-LAMBERT COMPANY, priority 1988, dated 1989)
# “Also recorded” adds a separate entry of the source.
# Experiments:
# [1] = solubility in deionized water; format: physicochemical
# Experimental: When complexed with beta-cyclodextrin the solubility increases to about 10 mg hexetidine (contained in about 43 mg of complex) in about 10 ml of water -- without the addition of any alcohol or any surfactant. This is an increase from about 0 to about 0.1% w/v in solubility. The complex, 43 mg, was dissolved in 10 ml of deionized water at about 50°C using vortexing. The complex, assayed by UV to be a 1:1 complex of hexetidine: beta-cyclodextrin, contains 10 mg of hexetidine in the 43 mg of complex, and therefore, a 0.1% w/v solution of hexetidine was made. The solution of the 43 mg of complex in 10 ml of water was clear.
# [2] = cited from earlier work
structure (smiles),measurement,setting,value
"CCCCC(CC)CN1CN(CC(CC)CCCC)CC(C)(N)C1 (centres unmarked) [hexetidine, 5-amino-1,3 bis(2-ethylhexyl)-5-methyl-hexahydropyrimidine]",solubility in water (in words),"[1]; 10 mg hexetidine, alone or as 43 mg of complex, in 10 ml of water",virtually insoluble in water; also recorded: did not dissolve
same,solubility (hexetidine in aqueous solution),"[1]; water, no ethanol and no surfactant",about 0 % w/v
same,solution of hexetidine in known in the art compositions,"[2]; about 9.5% v/v ethanol and about 0.7% v/v of surfactant (e.g., TWEEN 80)",~0.1 % w/v
same,solubility in ethanol,[2]; ethanol,soluble in ethanol
same,solubility in water,[2]; water,practically insoluble in water
